# In article PMC10648875 (Antimicrobial Agents and Chemotherapy, 2023):
# What was measured:
# L1 = molecular target: T1, L1 (Stenotrophomonas maltophilia, UniProt P52700); experiment: Ki of metallo-β-lactamase inhibition, purified enzyme; assay type: biochemical; settings: 10-minute preincubation; nitrocefin substrate
# T1 construct: made in house
# Experimental: (§1) The majority of purified β-lactamase enzymes used in the study were either expressed and purified internally ([35]) or obtained from Emerald Biostructures (Bainbridge Island, WA, USA). L1 enzyme was purified as described in reference ([36]).
# (§2) Enzymes were mixed with BLIs at concentrations varying from 160 to 0.0027 µM in 50-mM Na-phosphate pH7.0, 0.1-mg/mL bovide serum albumin (BSA) (buffer A; 20-µM ZnCl2 was also added for all metalloenzymes) and incubated for 10 minutes at 37°C. Nitrocefin (50 µM) (10 µM for SHV-12) or 100 µM of imipenem (prewarmed at 37°C for 10 minutes) was added, and substrate cleavage profiles were recorded at 37°C at 490 nm every 10 seconds for 10 minutes or at 294 nm every 30 seconds for 1 hour for nitrocefin and imipenem, respectively. […] Ki app values (Ki for metalloenzymes) were calculated by the method of Waley ([37]).
# VIM-1 = VIM-1 (Pseudomonas aeruginosa, UniProt A0A0F7KYQ8); experiment: as above; assay type: biochemical; settings: 10-minute preincubation, nitrocefin substrate
# Experimental: as §1, §2
# OXA-48 = OXA-48 (Klebsiella pneumoniae, UniProt Q6XEC0); experiment: Ki app of β-lactamase inhibition, purified enzyme; assay type: biochemical, Enterobacterales; settings: 10-minute preincubation; nitrocefin substrate
# Chain of OXA-48 (Q6XEC0 23-265 limits assumed): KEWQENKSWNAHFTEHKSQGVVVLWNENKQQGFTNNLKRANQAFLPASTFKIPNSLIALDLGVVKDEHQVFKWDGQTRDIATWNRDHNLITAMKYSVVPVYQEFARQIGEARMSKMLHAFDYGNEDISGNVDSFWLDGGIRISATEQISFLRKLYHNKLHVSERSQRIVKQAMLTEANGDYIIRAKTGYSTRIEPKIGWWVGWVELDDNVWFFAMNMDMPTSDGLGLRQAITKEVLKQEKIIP
# Experimental: as §1, §2
# [1] = system: isogenic efflux and porin mutants of K. pneumoniae and their NDM-1-producing derivatives; experiment: MIC against isogenic efflux and porin mutants (Table 9); assay type: cell-based; settings: for BLI MIC / MIC: BLI alone; for MIC: Klebsiella pneumoniae
# [2] = KPM1026a, Wild type, ATCC 43816, β-lactamase None, BLI 0 µg/mL
# [3] = KPM1026a, Wild type, ATCC 43816, β-lactamase None, BLI 4 µg/mL
# [4] = KPM1026a, Wild type, ATCC 43816, β-lactamase None, BLI 8 µg/mL
# [5] = KPM1027, ramR*, β-lactamase None, BLI 0 µg/mL
# [6] = KPM1027, ramR*, β-lactamase None, BLI 4 µg/mL
# [7] = KPM1027, ramR*, β-lactamase None, BLI 8 µg/mL
# [8] = KPM1281, Wild type, ATCC 43816, NDM-1, BLI 0 µg/mL
# [9] = KPM1281, Wild type, ATCC 43816, NDM-1, BLI 4 µg/mL
# [10] = KPM1281, Wild type, ATCC 43816, NDM-1, BLI 8 µg/mL
# [11] = KPM1282, ramR*, NDM-1, BLI 0 µg/mL
# [12] = KPM1282, ramR*, NDM-1, BLI 4 µg/mL
# [13] = KPM1282, ramR*, NDM-1, BLI 8 µg/mL
# [14] = KPM2013, mpK36_2040 ΔompK35, β-lactamase None, BLI 0 µg/mL
# [15] = KPM2013, mpK36_2040 ΔompK35, β-lactamase None, BLI 4 µg/mL
# [16] = KPM2013, mpK36_2040 ΔompK35, β-lactamase None, BLI 8 µg/mL
# [17] = KPM2013, mpK36_2040 ΔompK35, β-lactamase None
# [18] = KPM2040, mpK36_2040*, β-lactamase None, BLI 0 µg/mL
# [19] = KPM2040, mpK36_2040*, β-lactamase None, BLI 4 µg/mL
# [20] = KPM2040, mpK36_2040*, β-lactamase None, BLI 8 µg/mL
# [21] = KPM2040, mpK36_2040*, β-lactamase None
# [22] = KPM3820, mpK36_2040*, NDM-1, BLI 0 µg/mL
# [23] = KPM3820, mpK36_2040*, NDM-1, BLI 4 µg/mL
# [24] = KPM3820, mpK36_2040*, NDM-1, BLI 8 µg/mL
# [25] = KPM3825, mpK36_2040 ΔompK35, NDM-1, BLI 0 µg/mL
# [26] = KPM3825, mpK36_2040 ΔompK35, NDM-1, BLI 4 µg/mL
# [27] = KPM3825, mpK36_2040 ΔompK35, NDM-1, BLI 8 µg/mL
# [28] = KPM3825, mpK36_2040 ΔompK35, NDM-1
# T1 sequence (P52700 34-290): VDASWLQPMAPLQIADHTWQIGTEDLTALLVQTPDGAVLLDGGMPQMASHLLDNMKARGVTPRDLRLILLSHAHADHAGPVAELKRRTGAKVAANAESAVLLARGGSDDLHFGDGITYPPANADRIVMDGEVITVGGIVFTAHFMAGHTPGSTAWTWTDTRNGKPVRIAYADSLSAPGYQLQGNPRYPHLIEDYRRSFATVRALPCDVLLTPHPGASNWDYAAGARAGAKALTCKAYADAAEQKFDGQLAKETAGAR
structure (smiles),measurement,setting,value
"NCCN[C@H]1CC[C@H](CC(=O)N[C@H]2Cc3cccc(C(=O)O)c3OB2O)CC1 [Taniborbactam, taniborbactam]",Ki,L1,17000 nM
same,Ki,VIM-1,31 ± 3 nM
same,Ki,VIM-1; listed as taniborbactam,~30 nM
same,Ki,OXA-48,6.1 ± 0.7 nM
same,Cefepime MIC with BLIs,[1]; [2],0.03 µg/mL
same,Meropenem MIC with BLIs,[1]; [2],0.03 µg/mL
same,Cefepime MIC with BLIs,[1]; [3],0.03 µg/mL
same,Meropenem MIC with BLIs,[1]; [3],0.03 µg/mL
same,Cefepime MIC with BLIs,[1]; [4],0.03 µg/mL
same,Meropenem MIC with BLIs,[1]; [4],0.03 µg/mL
same,BLI MIC,"[1]; KPM1026a, Wild type, ATCC 43816, β-lactamase None",>64 µg/mL
same,Cefepime MIC with BLIs,[1]; [5],0.25 µg/mL
same,Meropenem MIC with BLIs,[1]; [5],0.06 µg/mL
same,Cefepime MIC with BLIs,[1]; [6],0.25 µg/mL
same,Meropenem MIC with BLIs,[1]; [6],0.06 µg/mL
same,Cefepime MIC with BLIs,[1]; [7],0.25 µg/mL
same,Meropenem MIC with BLIs,[1]; [7],0.06 µg/mL
same,BLI MIC,"[1]; KPM1027, ramR*, β-lactamase None",>64 µg/mL
same,Cefepime MIC with BLIs,[1]; [8],16 µg/mL
same,Meropenem MIC with BLIs,[1]; [8],32 µg/mL
same,Cefepime MIC with BLIs,[1]; [9],0.25 µg/mL
same,Meropenem MIC with BLIs,[1]; [9],0.125 µg/mL
same,Cefepime MIC with BLIs,[1]; [10],0.125 µg/mL
same,Meropenem MIC with BLIs,[1]; [10],0.06 µg/mL
same,BLI MIC,"[1]; KPM1281, Wild type, ATCC 43816, NDM-1",>64 µg/mL
same,Cefepime MIC with BLIs,[1]; [11],32 µg/mL
same,Meropenem MIC with BLIs,[1]; [11],64 µg/mL
same,Cefepime MIC with BLIs,[1]; [12],0.5 µg/mL
same,Meropenem MIC with BLIs,[1]; [12],0.25 µg/mL
same,Cefepime MIC with BLIs,[1]; [13],0.5 µg/mL
same,Meropenem MIC with BLIs,[1]; [13],0.125 µg/mL
same,BLI MIC,"[1]; KPM1282, ramR*, NDM-1",>64 µg/mL
same,Cefepime MIC with BLIs,[1]; [14],0.5 µg/mL
same,Meropenem MIC with BLIs,[1]; [14],0.25 µg/mL
same,Cefepime MIC with BLIs,[1]; [15],0.5 µg/mL
same,Meropenem MIC with BLIs,[1]; [15],0.25 µg/mL
same,Cefepime MIC with BLIs,[1]; [16],0.5 µg/mL
same,Meropenem MIC with BLIs,[1]; [16],0.25 µg/mL
same,BLI MIC,[1]; [17],>64 µg/mL
same,Cefepime MIC with BLIs,[1]; [18],0.125 µg/mL
same,Meropenem MIC with BLIs,[1]; [18],0.125 µg/mL
same,Cefepime MIC with BLIs,[1]; [19],0.125 µg/mL
same,Meropenem MIC with BLIs,[1]; [19],0.125 µg/mL
same,Cefepime MIC with BLIs,[1]; [20],0.125 µg/mL
same,Meropenem MIC with BLIs,[1]; [20],0.125 µg/mL
same,BLI MIC,[1]; [21],>64 µg/mL
same,Cefepime MIC with BLIs,[1]; [22],128 µg/mL
same,Meropenem MIC with BLIs,[1]; [22],128 µg/mL
same,Cefepime MIC with BLIs,[1]; [23],4 µg/mL
same,Meropenem MIC with BLIs,[1]; [23],8 µg/mL
same,Cefepime MIC with BLIs,[1]; [24],2 µg/mL
same,Meropenem MIC with BLIs,[1]; [24],4 µg/mL
same,BLI MIC,"[1]; KPM3820, mpK36_2040*, NDM-1",>64 µg/mL
same,Cefepime MIC with BLIs,[1]; [25],256 µg/mL
same,Meropenem MIC with BLIs,[1]; [25],256 µg/mL
same,Cefepime MIC with BLIs,[1]; [26],8 µg/mL
same,Meropenem MIC with BLIs,[1]; [26],32 µg/mL
same,Cefepime MIC with BLIs,[1]; [27],4 µg/mL
same,Meropenem MIC with BLIs,[1]; [27],16 µg/mL
same,BLI MIC,[1]; [28],>64 µg/mL
"O=C(O)c1c(F)ccc2c1OB(O)[C@@H]1C[C@H]21 [Xeruborbactam, xeruborbactam]",Ki,L1,1400 nM
same,Ki,VIM-1,32 ± 14 nM
same,Ki,OXA-48,0.22 ± 0.08 nM
same,Cefepime MIC with BLIs,[1]; [2],0.03 µg/mL
same,Meropenem MIC with BLIs,[1]; [2],0.03 µg/mL
same,Cefepime MIC with BLIs,[1]; [3],0.015 µg/mL
same,Meropenem MIC with BLIs,[1]; [3],0.015 µg/mL
same,Cefepime MIC with BLIs,[1]; [4],0.002 µg/mL
same,Meropenem MIC with BLIs,[1]; [4],0.008 µg/mL
same,Cefepime MIC with BLIs,[1]; [5],0.25 µg/mL
same,Meropenem MIC with BLIs,[1]; [5],0.06 µg/mL
same,Cefepime MIC with BLIs,[1]; [6],0.125 µg/mL
same,Meropenem MIC with BLIs,[1]; [6],0.015 µg/mL
same,Cefepime MIC with BLIs,[1]; [7],0.015 µg/mL
same,Meropenem MIC with BLIs,[1]; [7],0.004 µg/mL
same,Cefepime MIC with BLIs,[1]; [8],16 µg/mL
same,Meropenem MIC with BLIs,[1]; [8],32 µg/mL
same,Cefepime MIC with BLIs,[1]; [9],0.03 µg/mL
same,Meropenem MIC with BLIs,[1]; [9],0.06 µg/mL
same,Cefepime MIC with BLIs,[1]; [10],0.008 µg/mL
same,Meropenem MIC with BLIs,[1]; [10],0.004 µg/mL
same,Cefepime MIC with BLIs,[1]; [11],32 µg/mL
same,Meropenem MIC with BLIs,[1]; [11],64 µg/mL
same,Cefepime MIC with BLIs,[1]; [12],0.25 µg/mL
same,Meropenem MIC with BLIs,[1]; [12],0.125 µg/mL
same,Cefepime MIC with BLIs,[1]; [13],0.06 µg/mL
same,Meropenem MIC with BLIs,[1]; [13],0.03 µg/mL
same,Cefepime MIC with BLIs,[1]; [14],0.5 µg/mL
same,Meropenem MIC with BLIs,[1]; [14],0.25 µg/mL
same,Cefepime MIC with BLIs,[1]; [15],0.25 µg/mL
same,Meropenem MIC with BLIs,[1]; [15],0.125 µg/mL
same,Cefepime MIC with BLIs,[1]; [16],0.06 µg/mL
same,Meropenem MIC with BLIs,[1]; [16],0.06 µg/mL
same,Cefepime MIC with BLIs,[1]; [18],0.125 µg/mL
same,Meropenem MIC with BLIs,[1]; [18],0.125 µg/mL
same,Cefepime MIC with BLIs,[1]; [19],0.06 µg/mL
same,Meropenem MIC with BLIs,[1]; [19],0.06 µg/mL
same,Cefepime MIC with BLIs,[1]; [20],0.015 µg/mL
same,Meropenem MIC with BLIs,[1]; [20],0.03 µg/mL
same,Cefepime MIC with BLIs,[1]; [22],128 µg/mL
same,Meropenem MIC with BLIs,[1]; [22],128 µg/mL
same,Cefepime MIC with BLIs,[1]; [23],1 µg/mL
same,Meropenem MIC with BLIs,[1]; [23],4 µg/mL
same,Cefepime MIC with BLIs,[1]; [24],0.5 µg/mL
same,Meropenem MIC with BLIs,[1]; [24],1 µg/mL
same,Cefepime MIC with BLIs,[1]; [25],256 µg/mL
same,Meropenem MIC with BLIs,[1]; [25],256 µg/mL
same,Cefepime MIC with BLIs,[1]; [26],2 µg/mL
same,Meropenem MIC with BLIs,[1]; [26],8 µg/mL
same,Cefepime MIC with BLIs,[1]; [27],1 µg/mL
same,Meropenem MIC with BLIs,[1]; [27],2 µg/mL
same,MIC,"[1]; ATCC43816, KPM1026a, Wild type, ATCC 43816, β-lactamase None",16 µg/mL
same,MIC,"[1]; ATCC43816, KPM1281, Wild type, ATCC 43816, NDM-1",16 µg/mL
same,MIC,[1]; [17],32 µg/mL
same,MIC,[1]; [21],32 µg/mL
same,MIC,"[1]; KPM3820, mpK36_2040*, NDM-1",32 µg/mL
same,MIC,[1]; [28],32 µg/mL
